Measurements: US6294674A, “Dibenzofuran sulfonamide matrix metalloproteinase inhibitors” (priority 1999, dated 2001)
pIC50: −log10 of the molar value.

Experiments:
[1] = test system: MMP-13CD; assay: Thiopeptolide assay, MMP-13CD; type: biochemical, human; conditions: Tables 2, 3, 5, 7
Description: IC50 values were determined using a thiopeptolide substrate, Ac-Pro-Leu-Gly-thioester-Leu-Leu-Gly-OEt (Ye Q.-Z., Johnson L. L., Hupe D. J., and Baragi V., "Purification and Characterization of the Human Stromelysin Catalytic Domain Expressed in Escherichia coli," Biochemistry, 1992;31:11231-11235). MMP01, MMP07, MMP09, and MMP13 activity was assayed in a method similar to MMP02 and MMP03 (SCD and GCD). MMP01 and MMP09 can be obtained from Washington University School of Medicine, St. Louis, Mo. MMP07 can be obtained in accordance with the known procedure set forth by Ye QZ, Johnson L. L., and Baragi V., "Gene Syntheses and Expression in E. coli for PUMP, a Human Matrix Metalloproteinase" Biochem. and Biophys. Res. Comm., 1992; 186:143-149. MMP 13 can be obtained in accordance with the known procedure set forth by Freije J. M. P., et al., "Molecular Cloning and Expression of Collegenase-3, a Novel Human Matrix Metalloproteinase Produced by Breast Carcinomas" J. Bio. Chem., 1994;269:16766-6773.
(§1) Hydrolysis of the thiopeptolide substrate Ac-Pro-Leu-Gly-thioester-Leu-Leu-Gly-OEt (Bachem) is used as the primary screen to determine IC50 values for MMP inhibitors. A 100 μL reaction contains 1 mM 5,5'-dithiobis(2-nitrobenzoic acid) (DTNB), 100 μM substrate, 0.1% Brij, enzyme, and inhibitor in the appropriate reaction buffer. Activated full-length enzymes are assayed at 5 nM, Stromelysin Catalytic Domain (SCD) at 10 nM, and Gelatinase A Catalytic Domain (GaCD) at 1 nM. Inhibitors are screened from 100 μM to 1 nM. Full-length enzymes are assayed in 50 mM HEPES, 10 mM CaCl2, pH 7.0; SCD in 50 mM MES, 10 mM CaCl2, pH 6.0; and GaCD in 50 mM MOPS, 10 mM CaCl2, 10 μM ZnCl2, pH 7.0. The change in absorbance at 405 riM is monitored on a ThermoMax microplate reader at room temperature continuously for 20 minutes.

[2] = target: T1, stromelysin-1 catalytic domain (MMP03) (Homo sapiens, UniProt P08254); assay: Thiopeptolide assay, stromelysin-1 catalytic domain (SCD, MMP03); type: biochemical; conditions: Tables 2, 3, 5, 7; read-out: IC50 MMP 3CD
T1 construct: SCD (stromelysin-1 catalytic domain); made in house; host or cells: Escherichia coli
T1 sequence (P08254 100-272 limits assumed): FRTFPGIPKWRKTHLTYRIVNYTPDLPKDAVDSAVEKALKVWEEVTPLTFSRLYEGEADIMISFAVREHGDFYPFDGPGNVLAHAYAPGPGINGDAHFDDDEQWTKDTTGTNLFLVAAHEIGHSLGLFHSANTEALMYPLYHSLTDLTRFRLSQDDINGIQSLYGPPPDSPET
Description: as §1, with “7.0.” for “7.0. The change in absorbance at 405 riM is monitored on a ThermoMax microplate reader at room temperature continuously for 20 minutes.”

[3] = target: T2, MMP07 (Homo sapiens, UniProt P09237); assay: Thiopeptolide assay, MMP07; type: biochemical; conditions: Tables 2, 3, 5, 7; read-out: IC50 MMP-7
T2 construct: made in house; host or cells: Escherichia coli
T2 sequence (P09237 95-267): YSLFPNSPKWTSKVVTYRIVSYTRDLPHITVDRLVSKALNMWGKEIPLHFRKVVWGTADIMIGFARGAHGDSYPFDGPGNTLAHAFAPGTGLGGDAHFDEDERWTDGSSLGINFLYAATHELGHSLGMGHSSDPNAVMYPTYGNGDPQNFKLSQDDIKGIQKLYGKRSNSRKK
Description: (§2) MMP01, MMP07, MMP09, and MMP13 activity was assayed in a method similar to MMP02 and MMP03 (SCD and GCD). MMP01 and MMP09 can be obtained from Washington University School of Medicine, St. Louis, Mo. MMP07 can be obtained in accordance with the known procedure set forth by Ye QZ, Johnson L. L., and Baragi V., "Gene Syntheses and Expression in E. coli for PUMP, a Human Matrix Metalloproteinase" Biochem. and Biophys. […] MMP 13 can be obtained in accordance with the known procedure set forth by Freije J. M. P., et al., "Molecular Cloning and Expression of Collegenase-3, a Novel Human Matrix Metalloproteinase Produced by Breast Carcinomas" J. Bio.
as §1, with “7.0.” for “7.0. The change in absorbance at 405 riM is monitored on a ThermoMax microplate reader at room temperature continuously for 20 minutes.”

[4] = target: T3, MMP01 (Homo sapiens, UniProt P03956); assay: Thiopeptolide assay, MMP01; type: biochemical; conditions: Tables 2, 3, 5, 7; read-out: IC50 MMP1
T3 construct: purchased Washington University School of Medicine, St. Louis, Mo
T3 sequence (P03956 100-469): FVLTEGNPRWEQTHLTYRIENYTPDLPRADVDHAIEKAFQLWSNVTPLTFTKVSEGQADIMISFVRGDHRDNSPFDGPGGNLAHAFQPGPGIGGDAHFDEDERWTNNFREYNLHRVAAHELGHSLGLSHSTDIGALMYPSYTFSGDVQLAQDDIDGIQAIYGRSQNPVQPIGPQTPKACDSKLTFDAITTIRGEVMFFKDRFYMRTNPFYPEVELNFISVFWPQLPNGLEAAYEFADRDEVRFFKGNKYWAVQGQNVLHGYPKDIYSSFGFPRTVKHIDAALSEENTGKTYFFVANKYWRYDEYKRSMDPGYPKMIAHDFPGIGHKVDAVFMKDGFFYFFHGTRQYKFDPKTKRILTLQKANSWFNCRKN
Description: as §2
as §1, with “7.0.” for “7.0. The change in absorbance at 405 riM is monitored on a ThermoMax microplate reader at room temperature continuously for 20 minutes.”

[5] = target: gelatinase A catalytic domain (MMP02); assay: Thiopeptolide assay, gelatinase A catalytic domain (GCD, MMP02); type: biochemical; conditions: Tables 2, 3, 5, 7; read-out: IC50 MMP-2CD
Description: as §1, with “7.0.” for “7.0. The change in absorbance at 405 riM is monitored on a ThermoMax microplate reader at room temperature continuously for 20 minutes.”

| Compound | pIC50 [1] | pIC50 [2] | pIC50 [3] | pIC50 [4] | pIC50 [5] |
| --- | --- | --- | --- | --- | --- |
| O=C(O)C(CCCCNC(=S)Nc1cccnc1)NS(=O)(=O)c1ccc2oc3ccccc3c2c1 (stereo not drawn) [Example B3, 2-(Dibenzofuran-2-sulfonylamino)-6-(3-pyridin-3-yl-thioureido)-hexanoic acid] | 4.87 | 5.21 | 4.03 | < 4.00 | 5.68 |
| O=C(O)C(CCCCNC(=S)NC(c1ccccc1)c1ccccc1)NS(=O)(=O)c1ccc2oc3ccccc3c2c1 (stereo not drawn) [Example B4, 6-(3-Benzhydryl-thioureido)-2-(dibenzofiuran-2-sulfonylamino)-hexanoic acid] | 4.69 | 5.09 | < 4.00 | < 4.00 | 5.04 |
| O=C(O)C(CCCCNC(=S)NCc1ccccc1)NS(=O)(=O)c1ccc2oc3ccccc3c2c1 (stereo not drawn) [Example B5, 6-(3-Benzyl-thioureido)-2-(dibenzofuran-2-sulfonylamino)-hexanoic acid] | 5.48 | 5.64 | < 4.00 | < 4.00 | 5.92 |
| O=C(O)C(CCCCNC(=S)NC12CC3CC(CC(C3)C1)C2)NS(=O)(=O)c1ccc2oc3ccccc3c2c1 (stereo not drawn) [Example B6, 6-(3-Adamantan-1-yl-thioureido)-2-(dibenzofuran-2-sulfonylamino)-hexanoic acid] | 5.36 | 5.05 | < 4.00 | < 4.00 | 5.51 |
| C=CCNC(=O)NCCCCC(NS(=O)(=O)c1ccc2oc3ccccc3c2c1)C(=O)O (stereo not drawn) [Example B8, 6-(3-Allyl-ureido)-2-(dibenzofuran-2-sulfonylamino)-hexanoic acid] | 5.12 | 5.52 | < 4.00 | < 4.00 | 5.96 |
| O=C(NCCCCC(NS(=O)(=O)c1ccc2oc3ccccc3c2c1)C(=O)O)NCc1ccccc1 (stereo not drawn) [Example B9, 6-(3-Benzyl-ureido)-2-(dibenzofuran-2-sulfonylamino)-hexanoic acid] | 5.40 | 5.85 | 4.15 | < 4.00 | 6.10 |
| O=C(NCCCCC(NS(=O)(=O)c1ccc2oc3ccccc3c2c1)C(=O)O)Nc1ccccc1 (stereo not drawn) [Example B10, 2-(Dibenzofuran-2-sulfonylamino)-6-(3-phenyl-ureido)-hexanoic acid] | 5.10 | 5.62 | < 4.00 | < 4.00 | 6.52 |
| O=C(O)C(CCCCNS(=O)(=O)c1ccc(F)cc1)NS(=O)(=O)c1ccc2oc3ccccc3c2c1 (stereo not drawn) [Example D1, 2-(Dibenzofuran-2-sulfonylamino)-6-(4-fluoro-benzenesulfonylamino)-hexanoicacid] | 5.62 | 5.54 | < 4.00 | < 4.00 | 5.77 |
| COc1ccc(S(=O)(=O)NCCCCC(NS(=O)(=O)c2ccc3oc4ccccc4c3c2)C(=O)O)cc1 (stereo not drawn) [Example D2, 2-(Dibenzofuran-2-sulfonylamino)-6-(4-methoxy-benzenesulfonylamino)-hexanoic acid] | 5.15 | 5.34 | < 4.00 | < 4.00 | 5.74 |
